Consider nine compounds from US20260242438A1 (INSTITUTE OF MATERIA MEDICA, CHINESE ACADEMY OF MEDICAL …, priority 2022, published 2026).

This experiment concerns the target chymotrypsin (Bos taurus, UniProt P00766). Put plainly: Determination of enzyme inhibitory activity against chymotrypsin (substrate AAPFpNA, OD 405 nm). Format: biochemical. The following applies: for IC50: chymotrypsin 30 nM, AAPFpNA 0.5 mM, pH 7.8, 37° C.; for remaining activity at 0.0001 µM: peptide 0.0001 μM; for remaining activity at 0.001 µM: peptide 0.001 μM; for remaining activity at 0.01 µM: peptide 0.01 μM; for remaining activity at 0.1 µM: peptide 0.1 μM; for remaining activity at 1 µM: peptide 1 μM; for remaining activity at 10 µM: peptide 10 μM; for remaining activity at 0.2 µM: peptide 0.2 μM; for remaining activity at 0.5 µM: peptide 0.5 μM; for remaining activity at 100 µM: peptide 100 μM; for remaining activity at 0.4 µM: peptide 0.4 μM. As for the experimental part:
The substrates N-succinyl-Ala-Ala-Pro-Phe-p-nitroaniline (AAPFpNA) is used in competitive binding reaction to determine the inhibitory activities against α -chymotrypsin. Experiments for a-chymotrypsin was measured in 20 mM CaCl2, 50 mM Tris-HCl buffer (pH 7.8). The concentration of the peptide was measured using optical density (OD) at 280 nm. The Michaelis constant (Km) of the enzyme hydrolysis substrate is calculated from the initial rate of substrate hydrolysis at 405 nm. The absorbance value of the substrate was measured at 405 nm after complete hydrolysis. All data were processed using nonlinear regression.
(1) Added a total 190 μL of reaction buffer (20 mM CaCl2, 50 mM Tris-HCl (pH 7.8)), different concentrations of anti-chymorypsin peptides (CHs) into the pre-cold 96 well plate, followed by preheating at 37° C. for 5 min and centrifugated at 500 rpm for 1 min and allowed to stand for 4 minutes. Then added 8 μL of 750 nM chymotrypsin and incubated at 37° C. for 10 min, and centrifugated at 500 rpm for 1 min and allowed to stand for 9 minutes. Finally, added 2 μL of 50 mM AAPFpNA, and mixed by centrifugation at 500 rpm for 1 min. The plate was incubated at 37° C. for 90 min, and the absorbance value at 405 nm was measured. Three repetitions were made, and only reaction buffer and substrate were added in the blank control as the minimum absorption value (Min OD 405 nm); Only reaction buffer, enzyme and substrate were added in the negative control as the maximum absorption value (Max OD 405 nm).
(2) In the 200 μL of reaction system, the final concentrations of chymotrypsin and AAPFpNA were 30 nM and 0.5 mM, respectively.
Plotted the residual activity of enzyme with […] to obtain the half inhibitory concentration (IC50) of anti-chymorypsin peptides (CHs). Then, substituted it into the formula […]/(1+S/Km) (S, IC50, and Km were substrate concentration, half inhibitory concentration, and Michaelis constant, respectively) to obtain the inhibition constant Ki of anti-chymorypsin peptides (CHs).

Setting [1] is: read-out: Residual activity of chymotrypsin.

Each structure is given as a SMILES string. Where a SMILES comes first, the peptide text is derived from it. Bridges are numbered along the chain shown (N, C = ends).

As a reminder, the Ki is a dissociation constant, usually derived from enzyme kinetics or from competition with a known ligand. A higher Ki goes with lower affinity. The term IC50 denotes the concentration needed to halve the response being measured.

Turning to `CC[C@H](C)[C@@H]1NC(=O)[C@@H]2CCCN2C(=O)[C@@H]2CCCN2C(=O)[C@H]([C@@H](C)CC)NC(=O)[C@H](CO)NC(=O)[C@H](Cc2ccc(O)cc2)NC(=O)[C@H]([C@@H](C)O)NC(=O)[C@H](C)NC(=O)[C@H](CCCNC(=N)N)NC(=O)CNC(=O)[C@@H](N)CSSC[C@@H](C(=O)N[C@@H](Cc2ccccc2)C(=O)O)NC1=O` [CH67] (H-CGRATYSIPPICF-OH; disulfide 1-12; C-terminus assumed), the Ki came to 860 nM and the half-inhibitory concentration (IC50) came out at 2000 nM.

Compound `CC[C@H](C)[C@@H]1NC(=O)[C@@H]2CCCN2C(=O)[C@@H]2CCCN2C(=O)[C@H]([C@@H](C)CC)NC(=O)[C@H](CO)NC(=O)[C@H](Cc2ccccc2)NC(=O)[C@H]([C@@H](C)O)NC(=O)[C@@H](NC(=O)[C@H](CCCNC(=N)N)NC(=O)CN)CSSC[C@@H](C(=O)N[C@@H](Cc2ccccc2)C(=O)N2CCC[C@H]2C(=O)N[C@@H](CC(=O)O)C(=O)O)NC1=O` [CH54] (H-GRCTFSIPPICFPD-OH; disulfide 3-11; C-terminus assumed) registered a Ki of 10 nM and an IC50 of 30 nM. Under setting [1], the remaining activity at 0.0001 µM is 100.6 ± 0.9%, the remaining activity at 0.001 µM stood at 101.7 ± 0.6%, the remaining activity at 0.01 µM is 100 ± 2.9% and the remaining activity at 0.1 µM was determined as 13.8 ± 3.3%. Also, under setting [1], the remaining activity at 1 µM stood at 0.4 ± 0.2% and the remaining activity at 10 µM is -0.1%. For the same compound, the remaining activity at 0.02 µM (peptide 0.02 μM, read-out: Residual activity of chymotrypsin) was determined as 68.8 ± 4%. The remaining activity at 0.04 µM (peptide 0.04 μM, read-out: Residual activity of chymotrypsin) came to 34.2 ± 3.9%. For the setting “peptide 0.08 μM, read-out: Residual activity of chymotrypsin”, the remaining activity at 0.08 µM is 15.2 ± 1.9%.

As for `CC[C@H](C)[C@@H]1NC(=O)[C@@H]2CCCN2C(=O)[C@@H]2CCCN2C(=O)[C@H]([C@@H](C)CC)NC(=O)[C@H](CO)NC(=O)[C@H](Cc2ccc(O)cc2)NC(=O)[C@H]([C@@H](C)O)NC(=O)[C@H](C)NC(=O)[C@H](CCCNC(=N)N)NC(=O)[C@H](CCC(=O)O)NC(=O)[C@@H](N)CSSC[C@@H](C(=O)N[C@@H](Cc2ccccc2)C(=O)O)NC1=O` [CH70] (H-CERATYSIPPICF-OH; disulfide 1-12; C-terminus assumed), the affinity, expressed as Ki, was 110 nM and the concentration for half-maximal inhibition (IC50) came out at 250 nM. In addition, under setting [1], the remaining activity at 0.001 µM is 100 ± 7.6%, the remaining activity at 0.01 µM was determined as 106 ± 1.8%, the remaining activity at 0.1 µM was 105.8 ± 0.9% and the remaining activity at 0.2 µM was 55 ± 7.2%. Further, under setting [1], the remaining activity at 0.5 µM stood at 26 ± 2.5%, the remaining activity at 1 µM turned out to be 7.7 ± 0.2%, the remaining activity at 10 µM turned out to be 0.7 ± 0.3% and the remaining activity at 100 µM is -0.1 ± 0.1%. For the same compound, the remaining activity at 0.15 µM (peptide 0.15 μM, read-out: Residual activity of chymotrypsin) is 96.5 ± 8.5%.

`CC[C@H](C)[C@@H]1NC(=O)[C@@H]2CCCN2C(=O)[C@@H]2CCCN2C(=O)[C@H]([C@@H](C)CC)NC(=O)[C@H](CO)NC(=O)[C@H](Cc2ccc(O)cc2)NC(=O)[C@H]([C@@H](C)O)NC(=O)[C@@H](NC(=O)[C@@H](N)CCCNC(=N)N)CSSC[C@@H](C(=O)N[C@@H](Cc2ccccc2)C(=O)O)NC1=O` [CH58] (H-RCTYSIPPICF-OH; disulfide 2-10; C-terminus assumed): affinity was put at a Ki of 120 nM and the half-inhibitory concentration (IC50) was 270 nM.

As to `CC[C@H](C)[C@@H]1NC(=O)[C@@H]2CCCN2C(=O)[C@@H]2CCCN2C(=O)[C@H]([C@@H](C)CC)NC(=O)[C@H](CO)NC(=O)[C@H](Cc2ccc(O)cc2)NC(=O)[C@H]([C@@H](C)O)NC(=O)[C@@H](NC(=O)[C@@H](NC(=O)CN)[C@@H](C)O)CSSC[C@@H](C(=O)N[C@@H](CC(N)=O)C(=O)N2CCC[C@H]2C(=O)N[C@@H](CC(N)=O)C(=O)O)NC1=O` [CH60] (H-GTCTYSIPPICNPN-OH; disulfide 3-11; C-terminus assumed), affinity was put at a Ki of 40 nM and the IC50 came to 90 nM. Also, under setting [1], the remaining activity at 0.0001 µM amounted to 104.2 ± 0.8%, the remaining activity at 0.001 µM came out at 104.5 ± 0.9%, the remaining activity at 0.01 µM was 102 ± 7.6% and the remaining activity at 0.1 µM turned out to be 47.6 ± 7.6%. Under setting [1], the remaining activity at 0.5 µM turned out to be 7.4 ± 1%, the remaining activity at 1 µM was 3 ± 0.2%, the remaining activity at 10 µM turned out to be 0.7 ± 0.1% and the remaining activity at 100 µM came out at 0%. Moreover, the remaining activity at 0.25 µM (peptide 0.25 μM, read-out: Residual activity of chymotrypsin) turned out to be 29.5 ± 4.6%.

Consider `CC[C@H](C)[C@@H]1NC(=O)[C@@H]2CCCN2C(=O)[C@@H]2CCCN2C(=O)[C@H]([C@@H](C)CC)NC(=O)[C@H](CO)NC(=O)[C@H](Cc2ccccc2)NC(=O)[C@H]([C@@H](C)O)NC(=O)[C@@H](NC(=O)[C@@H](NC(=O)CN)[C@@H](C)O)CSSC[C@@H](C(=O)N[C@@H](CC(N)=O)C(=O)O)NC1=O` [CH26] (H-GTCTFSIPPICN-OH; disulfide 3-11; C-terminus assumed), for which the Ki was 230 nM and inhibition was half-maximal at 540 nM (IC50). Besides, under setting [1], the remaining activity at 0.001 µM amounted to 101 ± 1.6%, the remaining activity at 0.1 µM stood at 95.1 ± 2.1%, the remaining activity at 0.2 µM is 83.1 ± 1.1% and the remaining activity at 0.4 µM came out at 63.2 ± 4.5%. In addition, under setting [1], the remaining activity at 1 µM was 27.8 ± 2.5%, the remaining activity at 10 µM was determined as 2.2 ± 0.2% and the remaining activity at 100 µM was 0.3 ± 0.1%. For the same compound, the remaining activity at 5 µM (peptide 5 μM, read-out: Residual activity of chymotrypsin) amounted to 7 ± 0.5%. The remaining activity at 1000 µM (peptide 1000 μM, read-out: Residual activity of chymotrypsin) was 0.1%.

The compound `CC[C@H](C)[C@@H]1NC(=O)[C@@H]2CCCN2C(=O)[C@@H]2CCCN2C(=O)[C@H]([C@@H](C)CC)NC(=O)[C@H](CO)NC(=O)[C@H](Cc2ccccc2)NC(=O)[C@H]([C@@H](C)O)NC(=O)[C@@H](NC(=O)[C@@H](NC(=O)CN)[C@@H](C)O)CSSC[C@@H](C(=O)N[C@@H](CC(N)=O)C(=O)N2CCC[C@H]2C(=O)N[C@@H](CC(N)=O)C(=O)O)NC1=O` [CH59] (H-GTCTFSIPPICNPN-OH; disulfide 3-11; C-terminus assumed) registered an inhibitory constant (Ki) of 80 nM and a 50% inhibitory concentration (IC50) of 180 nM.

`CC[C@H](C)[C@@H]1NC(=O)[C@H](CO)NC(=O)[C@H](Cc2ccc(O)cc2)NC(=O)[C@H]([C@@H](C)O)NC(=O)[C@@H](NC(=O)[C@@H](N)Cc2ccccc2)CSSC[C@@H](C(=O)N[C@@H](Cc2ccc(O)cc2)C(=O)N[C@@H](C)C(=O)O)NC(=O)[C@H](CCC(N)=O)NC(=O)[C@@H]2CCCN2C(=O)[C@@H]2CCCN2C1=O` [CH34] (H-FCTYSIPPQCYA-OH; disulfide 2-10; C-terminus assumed) displayed a Ki of 160 nM and a half-maximal inhibitory concentration (IC50) of 370 nM. Moreover, under setting [1], the remaining activity at 0.001 µM was 102.3 ± 0.8%, the remaining activity at 0.01 µM turned out to be 104.1 ± 0.5%, the remaining activity at 0.1 µM stood at 104.8 ± 0.6% and the remaining activity at 0.2 µM worked out at 78.5 ± 2.5%. Moreover, under setting [1], the remaining activity at 0.4 µM turned out to be 45.5 ± 1.5%, the remaining activity at 1 µM was 17.8 ± 0.9%, the remaining activity at 10 µM amounted to 1.2 ± 0.1% and the remaining activity at 100 µM amounted to 0.1%. For the same compound, the remaining activity at 0.75 µM (peptide 0.75 μM, read-out: Residual activity of chymotrypsin) was 24.5 ± 0.9%.

Take `CC[C@H](C)[C@@H]1NC(=O)[C@H](CO)NC(=O)[C@H](Cc2ccc(O)cc2)NC(=O)[C@H]([C@@H](C)O)NC(=O)[C@@H](NC(=O)[C@@H](N)Cc2ccccc2)CSSC[C@@H](C(=O)N[C@@H](Cc2ccc(O)cc2)C(=O)NCC(=O)O)NC(=O)[C@H](CCC(N)=O)NC(=O)[C@@H]2CCCN2C(=O)[C@@H]2CCCN2C1=O` [CH10] (H-FCTYSIPPQCYG-OH; disulfide 2-10; C-terminus assumed): affinity was put at a Ki of 30 nM and the IC50 came out at 60 nM. Also, under setting [1], the remaining activity at 0.0001 µM amounted to 101%, the remaining activity at 0.01 µM was determined as 95.1 ± 1.2%, the remaining activity at 0.1 µM was 35.4 ± 7.2% and the remaining activity at 0.2 µM turned out to be 24.9 ± 3.5%. Besides, under setting [1], the remaining activity at 0.4 µM was 18 ± 4.9%, the remaining activity at 1 µM was found to be 3.8 ± 0.4%, the remaining activity at 10 µM was 0.1 ± 0.1% and the remaining activity at 100 µM is -0.1%.
